Measurements reported in patent publication US12558366B2, “Bacterial DNA gyrase inhibitors and methods of use thereof” (THE FLORIDA INTERNATIONAL UNIVERSITY BOARD OF TRUSTEES, priority 2021, dated 2026).
Converted amounts (≈) assume the structure as drawn. “Also recorded” adds a separate entry of the source. Like-named read-outs stand apart in the source and are kept apart here.

Legend:
Mtb DNA gyrase = Mtb DNA gyrase (Mycobacterium tuberculosis, UniProt P9WG45+P9WG47); experiment: Mtb DNA gyrase inhibition; assay type: biochemical
S. aureus (ATCC 14775) = experiment: Minimum inhibitory concentration, S. aureus; assay type: cell-based; conditions: for MIC: Staphylococcus aureus
Protocol: (§1) Antibacterial minimum inhibitory concentrations (MICs) were obtained from three independent experiments using broth microdilution methods in 96-well plates according to Clinical and Laboratory Standards Institute guidelines. Cells were culture from singles colonies in MHIIB medium for 24 h at 37° C. in agitation (200 RPM). The cultures were then diluted using the same media to reach an OD600 of 0.1. Then, 50 μL of the diluted cultures were added to the plates holding 50 μL of serially diluted compounds in MHIIB. The plates were incubated at 37° C. for 20 h. The starting inoculum was fixated to 10^5 colony-forming units per ml.

E. coli imp = experiment: microbe, parasite or virus in culture; assay type: cell-based; conditions: for MIC: Escherichia coli, read-out: Minimum Inhibitory Concentration E. coli imp
Protocol: as §1

E. coli DNA gyrase [1] = target: T1, E. coli DNA gyrase (Escherichia coli, UniProt P0AES4+P0AES6); experiment: DNA gyrase mediated DNA cleavage assay; assay type: biochemical; conditions: plasmid pBR322
Protocol: 250 ng of supercoiled pBR322 plasmid were incubated with 50 nM of E. coli DNA gyrase in reactions containing 35 mM Tris-HCl, 24 mM KCl, 4 mM MgCl2, 2 mM DTT, 0.1 mg/mL BSA, 6.5% glycerol, and 1.75 mM ATP, in presence of 200 μM of compounds, at 37° C. for 15 min. Then, 0.2% (w/v) of SDS and 0.1 mg/mL proteinase K were added, and samples were incubated at 37° C. for 1 h. […] Samples were examined by electrophoresis in 1% w/v agarose gel containing 0.5 μg/mL ethidium bromide and photographed under UV light.

B. subtilis (ATCC 6633) = experiment: Minimum inhibitory concentration, B. subtilis; assay type: cell-based; conditions: for MIC: Bacillus subtilis, ATCC6633, Tables 3a-3c
Protocol: as §1

E. coli (ATCC 25922) = experiment: Minimum inhibitory concentration, E. coli; assay type: cell-based; conditions: for MIC: Escherichia coli, ATCC25922, read-out: Minimum Inhibitory Concentration E. coli
Protocol: as §1

MRSA (ATCC BAA44) = experiment: microbe, parasite or virus in culture; assay type: cell-based, S. aureus; conditions: for MIC: Staphylococcus aureus
Protocol: as §1

Mtb = Mtb inhibition (antibacterial activity); assay type: cell-based, Mycobacterium tuberculosis; parameters: % Mtb inhibition: concentration or dose not given beside the values; conditions: for % Mtb inhibition: Table 5
HepG2 = experiment: Cytotoxicity in HepG2 cells; assay type: cell-based; conditions: for cytotoxicity: HepG2, 200 μM; for IC50: highest concentration 200 μM
J774 = experiment: Cytotoxicity in J774 cells; assay type: cell-based; conditions: for cytotoxicity: J774, 200 μM; for IC50: highest concentration 200 μM
E. coli DNA gyrase [2] = target: T1, E. coli DNA gyrase; experiment: E. coli DNA gyrase inhibition (agarose gel-based and/or SDFQ-based, not specified per value); assay type: biochemical
E. coli DNA gyrase [3] = target: T1, E. coli DNA gyrase; experiment: Agarose gel-based DNA gyrase inhibition assays; assay type: biochemical; conditions: 200 μM of compounds
Protocol: 100 ng of DNA gyrase was used to supercoil the rx pAB1 in the presence of different concentrations of a gyrase inhibitor. […] Samples were analyzed by electrophoresis in 1% w/v agarose gels followed by ethidium bromide staining and photographed under UV light.

E. coli DNA gyrase [4] = target: T1, E. coli DNA gyrase; experiment: E. coli DNA gyrase ATPase assays; assay type: biochemical
Protocol: E. coli DNA gyrase ATPase assays were performed in 60 μl, of 1×gyrase ATPase buffer (10 mM Tris.HCl (pH 7.5), 0.2 mM EDTA, 1 mM magnesium chloride, 1 mM DTT, and 2% (w/v) glycerol) containing 50 nM E. coli DNA gyrase, 200 ng rx pAB1, 0.8 mM Phosphoenol pyruvate, 1.2 units of Pyruvate kinase, 1.7 units of lactate dehydrogenase, and 0.4 mM of NADH at 37° C. After the reaction mixtures are incubated on ice for 5 minutes, 2 mM of ATP is added to initiate the reaction. Absorbance at OD340 nm is monitored for up to 30 minutes at 37° C. in a spectrophotometer.

E. coli DNA gyrase [5] = target: T1, E. coli DNA gyrase; experiment: SDFQ HTS assay of E. coli DNA gyrase (1536-well); assay type: biochemical; conditions: read-out: inhibition activities against E. coli DNA gyrase
Protocol: SDFQ HITS primary assay using pAB1_FL905 was performed in 2 μL of (1×DNA gyrase buffer: 20 mM Tris-Acetate pH 7.9, 50 mM KAc, 10 mM MgCl2, 2 mM DTT, 1 mM ATP, 0.1 mg/ml. BSA). […] 3) Spun plate at 800 rpm for 30 seconds. […] SDFQ HTS secondary assay using pAB1_FL924 was performed in 2 μL of (1×DNA gyrase buffer: 20 mM Tris-Acetate pHI 7.9, 50 mM KAc, 10 mM MgCl2, 2 mM DTT, 1 mM ATP, 0.1 mg/mL BSA). […] 3) Spun plate at 800 rpm for 30 seconds.

[6] = ATCC14775, Tables 3a-3c, read-out: Minimum Inhibitory Concentration S. aureus
[7] = read-out: Minimum Inhibitory Concentration S. aureus MRSA
[8] = Table 2 values, read-out: IC50 ( ≤15 μM) IC50

T1 sequence (P0AES4 whole entry, one chain of several): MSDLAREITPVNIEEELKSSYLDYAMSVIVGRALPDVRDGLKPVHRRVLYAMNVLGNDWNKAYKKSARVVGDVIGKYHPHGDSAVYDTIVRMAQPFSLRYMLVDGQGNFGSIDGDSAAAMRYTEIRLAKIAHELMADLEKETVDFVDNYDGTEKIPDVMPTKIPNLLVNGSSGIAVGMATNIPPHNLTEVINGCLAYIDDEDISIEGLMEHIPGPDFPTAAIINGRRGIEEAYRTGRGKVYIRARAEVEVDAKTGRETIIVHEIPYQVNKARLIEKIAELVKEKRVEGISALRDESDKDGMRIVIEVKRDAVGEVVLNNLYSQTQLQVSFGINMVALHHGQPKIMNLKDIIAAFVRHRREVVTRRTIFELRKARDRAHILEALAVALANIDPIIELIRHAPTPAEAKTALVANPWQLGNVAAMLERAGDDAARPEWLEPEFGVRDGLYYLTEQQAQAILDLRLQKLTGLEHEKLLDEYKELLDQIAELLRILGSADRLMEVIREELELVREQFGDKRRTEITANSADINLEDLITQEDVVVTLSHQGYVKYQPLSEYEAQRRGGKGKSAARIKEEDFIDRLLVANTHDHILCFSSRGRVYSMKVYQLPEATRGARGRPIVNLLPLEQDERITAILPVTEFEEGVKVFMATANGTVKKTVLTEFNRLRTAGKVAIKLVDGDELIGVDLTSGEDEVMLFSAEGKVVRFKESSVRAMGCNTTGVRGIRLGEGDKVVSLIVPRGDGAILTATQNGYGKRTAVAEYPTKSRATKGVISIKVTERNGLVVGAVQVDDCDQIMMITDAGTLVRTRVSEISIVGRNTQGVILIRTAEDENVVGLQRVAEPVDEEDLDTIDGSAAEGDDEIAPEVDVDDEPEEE
Mtb DNA gyrase, sequence (P9WG45 whole entry): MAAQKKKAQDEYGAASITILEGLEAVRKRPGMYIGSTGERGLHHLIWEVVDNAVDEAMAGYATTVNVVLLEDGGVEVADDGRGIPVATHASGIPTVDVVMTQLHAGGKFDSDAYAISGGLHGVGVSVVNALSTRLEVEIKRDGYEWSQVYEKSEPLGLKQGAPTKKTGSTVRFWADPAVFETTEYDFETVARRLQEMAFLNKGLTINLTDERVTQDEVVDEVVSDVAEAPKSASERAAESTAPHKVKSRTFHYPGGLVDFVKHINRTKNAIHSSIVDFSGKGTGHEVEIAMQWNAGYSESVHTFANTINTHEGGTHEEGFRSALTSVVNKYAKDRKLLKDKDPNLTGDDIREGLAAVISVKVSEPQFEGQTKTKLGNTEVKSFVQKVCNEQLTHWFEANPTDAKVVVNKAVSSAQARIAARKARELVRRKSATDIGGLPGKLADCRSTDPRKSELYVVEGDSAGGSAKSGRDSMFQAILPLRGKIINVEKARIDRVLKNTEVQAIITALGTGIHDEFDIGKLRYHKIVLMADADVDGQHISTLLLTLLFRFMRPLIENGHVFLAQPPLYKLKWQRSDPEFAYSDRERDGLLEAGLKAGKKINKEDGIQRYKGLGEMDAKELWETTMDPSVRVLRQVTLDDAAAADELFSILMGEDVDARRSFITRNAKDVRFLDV
Mtb DNA gyrase, sequence (P9WG47 whole entry): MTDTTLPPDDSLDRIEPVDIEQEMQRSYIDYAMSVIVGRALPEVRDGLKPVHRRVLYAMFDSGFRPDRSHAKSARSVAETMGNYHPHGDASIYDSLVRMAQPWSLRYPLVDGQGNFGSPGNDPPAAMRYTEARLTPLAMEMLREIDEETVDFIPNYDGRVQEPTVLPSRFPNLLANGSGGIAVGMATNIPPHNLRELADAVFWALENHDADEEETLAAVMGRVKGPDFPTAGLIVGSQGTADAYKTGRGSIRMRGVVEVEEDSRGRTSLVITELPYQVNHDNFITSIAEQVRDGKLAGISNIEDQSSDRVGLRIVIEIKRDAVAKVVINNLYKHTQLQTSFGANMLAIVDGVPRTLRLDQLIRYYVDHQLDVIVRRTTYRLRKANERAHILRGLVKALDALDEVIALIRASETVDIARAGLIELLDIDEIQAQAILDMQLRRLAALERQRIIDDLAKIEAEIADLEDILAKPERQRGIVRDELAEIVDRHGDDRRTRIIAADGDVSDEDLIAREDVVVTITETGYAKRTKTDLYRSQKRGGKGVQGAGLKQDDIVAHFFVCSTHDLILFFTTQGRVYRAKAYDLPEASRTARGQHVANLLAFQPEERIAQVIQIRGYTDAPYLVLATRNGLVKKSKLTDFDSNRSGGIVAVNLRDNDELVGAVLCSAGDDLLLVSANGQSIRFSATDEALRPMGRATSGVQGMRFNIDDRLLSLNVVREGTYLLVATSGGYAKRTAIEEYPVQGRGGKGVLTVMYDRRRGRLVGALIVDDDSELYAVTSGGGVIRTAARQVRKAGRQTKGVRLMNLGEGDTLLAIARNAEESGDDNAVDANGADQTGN

CNC(=O)[C@H]1O[C@@H](n2cnc3c(NCc4ccc(N)cc4)ncnc32)[C@H](O)[C@@H]1O [AB-MECA, reference compound]
inhibition of Mtb DNA gyrase activities (Mtb DNA gyrase): did not inhibit

CC(OC(=O)c1cc(O)c2ccccc2c1O)C(=O)Nc1ccc(C(N)=O)cc1 (centres unmarked) [Compound 40, 1-[(4-carbamoylphenyl)carbamoyl]ethyl 1,4-dihydroxynaphthalene-2-carboxylate]
MIC (S. aureus (ATCC 14775); [6]): > 200 µM | MIC (E. coli imp): > 200 µM | DNA gyrase-mediated double stranded DNA breaks / DNA nicking (E. coli DNA gyrase [1]): causes DNA gyrase-mediated double stranded DNA breaks and DNA nicking; also recorded: causes gyrase-mediated DNA double-stranded breaks and single-stranded nicks; also recorded: bacterial DNA gyrase poison | anti Bacillus subtilis activities at (B. subtilis (ATCC 6633)): 39 µg/mL | MIC (E. coli (ATCC 25922)): > 200 µM | MIC (MRSA (ATCC BAA44); [7]): > 200 µM

Cc1c(CCC(=O)O)c(=O)oc2cc3occ(-c4ccc(Br)cc4)c3cc12 [Compound 46]
MIC (S. aureus (ATCC 14775); ATCC14775, Table 5, read-out: MIC (μM) SA): > 200 µM | MIC (S. aureus (ATCC 14775); [6]): > 200 µM | activity against Mtb (Mtb): most active for Mtb | inhibition at 20 µM (Mtb; Mycobacterium tuberculosis, read-out: % inhibition (20 μM), 20 μM, Table 6): 82.3% | MIC (E. coli imp): 6.25 µM (≈ 2.67 µg/mL) | cytotoxicity (HepG2): no cytotoxicity evident | IC50 (HepG2; Homo sapiens, HepG2): > 200 µM | IC50 (Mtb DNA gyrase; Table 5): 75 µM | cytotoxicity (J774): no cytotoxicity evident | IC50 (J774; Mus musculus, J774): > 200 µM | MIC (B. subtilis (ATCC 6633)): 6.25 µM (≈ 2.67 µg/mL) | IC50 (E. coli DNA gyrase [2]): 11.4 µM | inhibition of E. coli DNA gyrase activities (E. coli DNA gyrase [2]): potent bacterial DNA gyrase inhibitors | IC50 (E. coli DNA gyrase [2]; [8]): 11.2 µM | inhibition of E. coli DNA gyrase activities (E. coli DNA gyrase [3]): completely inhibited | MIC (E. coli (ATCC 25922)): > 200 µM | MIC (MRSA (ATCC BAA44); read-out: MIC (μM) MRSA): > 200 µM | MIC (MRSA (ATCC BAA44); [7]): > 200 µM

Cc1c(CCC(=O)O)c(=O)oc2c(C)c3occ(-c4ccc(Br)cc4)c3cc12 [Compound 48]
% Mtb inhibition (Mtb): 38.6% | MIC (E. coli imp): > 200 µM | MIC (B. subtilis (ATCC 6633)): > 200 µM | mode of inhibition (ATP competitive) (E. coli DNA gyrase [4]): ATP competitive inhibitor | IC50 (E. coli DNA gyrase [2]; [8]): 4.28 µM | MIC (E. coli (ATCC 25922)): > 200 µM

Cc1c(C)c2cc3c(-c4ccc(Br)cc4)coc3c(C)c2oc1=O [Compound 118]
MIC (S. aureus (ATCC 14775); ATCC14775, read-out: Minimum Inhibitory Concentration S. aureus): 200 µM (≈ 76.6 µg/mL) | % Mtb inhibition (Mtb): 21.8% | inhibition of Mtb DNA gyrase activities (Mtb DNA gyrase): All psoralen derivatives inhibited E. coli and Mtb DNA gyrase activities except compounds 118 and 122 | inhibition of E. coli DNA gyrase activities (E. coli DNA gyrase [2]): All psoralen derivatives inhibited E. coli and Mtb DNA gyrase activities except compounds 118 and 122 | MIC (MRSA (ATCC BAA44); [7]): 200 µM (≈ 76.6 µg/mL)

Cc1c(CCC(=O)O)c(=O)oc2c(C)c3occ(-c4ccc(-c5ccccc5)cc4)c3cc12 [Compound 119]
activity against Mtb (Mtb): most active for Mtb | MIC (E. coli imp): > 200 µM | cytotoxicity (HepG2): no cytotoxicity evident | cytotoxicity (J774): no cytotoxicity evident | MIC (B. subtilis (ATCC 6633)): > 200 µM | MIC (E. coli (ATCC 25922)): > 200 µM

Cc1c(CCC(=O)O)c(=O)oc2c(C)c3occ(-c4ccc(Cl)cc4)c3cc12 [Compound 120]
% Mtb inhibition (Mtb): 18.7% | MIC (E. coli imp): > 200 µM | MIC (B. subtilis (ATCC 6633)): > 200 µM | MIC (E. coli (ATCC 25922)): > 200 µM

Cc1coc2cc3oc(=O)c(CCC(=O)O)c(C)c3cc12 [Compound 122]
MIC (S. aureus (ATCC 14775); [6]): 200 µM (≈ 57.3 µg/mL) | % Mtb inhibition (Mtb): 15.7% | inhibition of Mtb DNA gyrase activities (Mtb DNA gyrase): All psoralen derivatives inhibited E. coli and Mtb DNA gyrase activities except compounds 118 and 122 | inhibition of E. coli DNA gyrase activities (E. coli DNA gyrase [2]): All psoralen derivatives inhibited E. coli and Mtb DNA gyrase activities except compounds 118 and 122 | MIC (MRSA (ATCC BAA44); [7]): 200 µM (≈ 57.3 µg/mL)

Cc1c(CCC(=O)O)c(=O)oc2c(C)c3occ(-c4ccc5ccccc5c4)c3cc12 [Compound 124]
activity against Mtb (Mtb): most active for Mtb | MIC (E. coli imp): > 200 µM | cytotoxicity (HepG2): no cytotoxicity evident | cytotoxicity (J774): no cytotoxicity evident | MIC (E. coli (ATCC 25922)): > 200 µM

O=C(O)CCNc1ccc(NCCC(=O)O)c2c1C(=O)c1ccccc1C2=O [Compound 173, 3-({4-[(2-carboxyethyl)amino]-9,10-dioxo-9,10-dihydroanthracen-1-yl}amino)propanoic acid]
DNA gyrase-mediated double stranded DNA breaks / DNA nicking (E. coli DNA gyrase [1]): cause DNA nicking

O=C1C=C(NCCc2cc(Br)c(O)c(Br)c2)C(=O)c2ncccc21 [Compound 232, 7-((2-(3,5-Dibromo-4-hydroxyphenyl)ethyl)amino)-5,8-quinolinedione]
DNA gyrase-mediated double stranded DNA breaks / DNA nicking (E. coli DNA gyrase [1]): cause DNA nicking

Cc1cc(O)c2c(c1)C(=O)c1cc(O)cc(O)c1C2=O [Compound 242, Emodin]
inhibition at 5 µM (E. coli DNA gyrase [5]): > 40%

CNC(=O)[C@H]1O[C@@H](n2cnc3c(NCc4cccc(I)c4)ncnc32)[C@H](O)[C@@H]1O [IB-MECA]
inhibition of Mtb DNA gyrase activities (Mtb DNA gyrase): did not inhibit | inhibition of the ATPase activities of E. coli DNA gyrase (E. coli DNA gyrase [4]): inhibition of the ATPase activities | mode of inhibition (ATP competitive) (E. coli DNA gyrase [4]): ATP competitive inhibitors

O=S(=O)(Cl)c1ccc(Oc2ccc(S(=O)(=O)Cl)cc2)cc1 [NSC212]
% inhibition (20 μM) (Mtb; 20 μM, Table 6): 84.6% | IC50 (HepG2): > 200 µM | IC50 (J774): > 200 µM

Sc1cccc2c(S)cccc12 [NSC229]
% inhibition (20 μM) (Mtb; 20 μM, Table 6): 99.3% | IC50 (HepG2): > 200 µM | IC50 (J774): > 200 µM

CNC(=O)[C@H]1O[C@@H](n2cnc3c(NCc4cccc(I)c4)nc(Cl)nc32)[C@H](O)[C@@H]1O [chloro-IB-MECA, reference compound]
DNA gyrase-mediated double stranded DNA breaks / DNA nicking (E. coli DNA gyrase [1]): did not DNA double stranded DNA 10 breaks | inhibition of Mtb DNA gyrase activities (Mtb DNA gyrase): did not inhibit | inhibition of the ATPase activities of E. coli DNA gyrase (E. coli DNA gyrase [4]): inhibition of the ATPase activities | mode of inhibition (ATP competitive) (E. coli DNA gyrase [4]): ATP competitive inhibitors

Biphenyl gallate
MIC (μg/ml) S. aureus ATCC 14775 (S. aureus (ATCC 14775); Table 7): 16 µg/mL | MIC (μg/ml) E. coli imp (E. coli imp; Table 7): 36.43 µg/mL | MIC (μg/ml) B. subtilis ATCC 6633 (B. subtilis (ATCC 6633); Table 7): 16 µg/mL | MIC (μg/ml) E. coli ATCC 25922 (E. coli (ATCC 25922); Table 7): 517.29 µg/mL | MIC (μg/ml) S. aureus (MRSA) ATCC BAA44 (MRSA (ATCC BAA44); Table 7): 16 µg/mL
